Columns and labels:
[1] = target: T1, Tyrosine-protein phosphatase non-receptor type 2 (Homo sapiens, UniProt P17706); experiment: Inhibition of recombinant human N-terminal GST-tagged TCPTP catalytic domain (2 to 315 residues) expressed in Escherichia coli using […] as substrate preincubated with substrate for 5 mins followed by enzyme addition
T1 sequence (P17706 whole entry): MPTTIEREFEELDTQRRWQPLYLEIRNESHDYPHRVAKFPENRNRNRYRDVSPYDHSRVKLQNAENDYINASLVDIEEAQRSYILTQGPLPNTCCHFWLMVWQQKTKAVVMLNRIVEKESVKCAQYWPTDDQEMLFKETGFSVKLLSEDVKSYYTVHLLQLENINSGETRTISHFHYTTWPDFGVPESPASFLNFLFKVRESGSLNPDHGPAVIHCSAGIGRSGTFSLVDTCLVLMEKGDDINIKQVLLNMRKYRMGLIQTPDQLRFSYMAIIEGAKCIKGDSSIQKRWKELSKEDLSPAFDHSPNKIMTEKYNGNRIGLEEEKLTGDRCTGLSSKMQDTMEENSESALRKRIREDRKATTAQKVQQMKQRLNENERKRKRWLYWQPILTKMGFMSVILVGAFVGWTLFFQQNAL

[2] = target: T2, Tyrosine-protein phosphatase non-receptor type 9 (Homo sapiens, UniProt P43378); experiment: Inhibition of recombinant human N-terminal GST-tagged MEG2 catalytic domain (285 to 593 residues) expressed in Escherichia coli using […] as substrate preincubated with substrate for 5 mins followed by enzyme addition
T2 sequence (P43378 whole entry): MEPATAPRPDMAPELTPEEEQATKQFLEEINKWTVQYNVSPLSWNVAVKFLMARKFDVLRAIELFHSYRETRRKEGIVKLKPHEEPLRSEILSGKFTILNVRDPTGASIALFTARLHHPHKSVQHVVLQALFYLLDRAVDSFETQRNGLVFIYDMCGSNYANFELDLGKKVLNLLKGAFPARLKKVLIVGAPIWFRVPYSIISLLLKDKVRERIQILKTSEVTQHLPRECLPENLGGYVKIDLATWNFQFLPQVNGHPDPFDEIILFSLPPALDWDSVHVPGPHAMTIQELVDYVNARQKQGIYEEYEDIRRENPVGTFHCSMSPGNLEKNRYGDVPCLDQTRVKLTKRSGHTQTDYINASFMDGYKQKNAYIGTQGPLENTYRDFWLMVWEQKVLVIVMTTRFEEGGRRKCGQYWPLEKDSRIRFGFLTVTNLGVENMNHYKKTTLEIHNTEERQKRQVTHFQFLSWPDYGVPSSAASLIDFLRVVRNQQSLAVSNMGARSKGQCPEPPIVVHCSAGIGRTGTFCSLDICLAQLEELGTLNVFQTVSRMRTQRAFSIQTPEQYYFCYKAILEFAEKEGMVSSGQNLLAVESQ

Homo sapiens [3] = organism: Homo sapiens; experiment: Selectivity ratio of IC50 for recombinant human N-terminal GST-tagged MEG2 catalytic domain (285 to 593 residues) expressed in Escherichia coli to IC50 for recombinant human PTP1B expressed in Escherichia coli
[4] = target: T3, Tyrosine-protein phosphatase non-receptor type 1 (Homo sapiens, UniProt P18031); experiment: Inhibition of recombinant human PTP1B expressed in Escherichia coli using […] as substrate preincubated with substrate for 5 mins followed by enzyme addition
T3 sequence (P18031 whole entry): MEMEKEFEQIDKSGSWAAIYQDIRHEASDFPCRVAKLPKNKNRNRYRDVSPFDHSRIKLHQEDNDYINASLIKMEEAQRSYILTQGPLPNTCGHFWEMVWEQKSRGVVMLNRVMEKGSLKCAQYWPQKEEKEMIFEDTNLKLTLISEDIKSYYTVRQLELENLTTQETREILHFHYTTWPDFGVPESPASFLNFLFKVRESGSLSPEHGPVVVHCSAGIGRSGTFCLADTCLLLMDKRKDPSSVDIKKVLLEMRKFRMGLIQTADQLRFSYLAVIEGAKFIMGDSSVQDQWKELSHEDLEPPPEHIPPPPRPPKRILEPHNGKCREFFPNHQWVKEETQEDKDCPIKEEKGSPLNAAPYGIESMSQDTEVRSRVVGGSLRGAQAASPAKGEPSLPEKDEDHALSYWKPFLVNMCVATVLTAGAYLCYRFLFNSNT

Homo sapiens [5] = organism: Homo sapiens; experiment: Selectivity ratio of IC50 for recombinant human SHP2 expressed in Escherichia coli to IC50 for recombinant human PTP1B expressed in Escherichia coli
Homo sapiens [6] = organism: Homo sapiens; experiment: Selectivity ratio of IC50 for recombinant human N-terminal GST-tagged MEG1 catalytic domain (637 to 926 residues) expressed in Escherichia coli to IC50 for recombinant human PTP1B expressed in Escherichia coli
Homo sapiens [7] = organism: Homo sapiens; experiment: Selectivity ratio of IC50 for recombinant human N-terminal GST-tagged TCPTP catalytic domain (2 to 315 residues) expressed in Escherichia coli to IC50 for recombinant human PTP1B expressed in Escherichia coli
[8] = target: T4, Tyrosine-protein phosphatase non-receptor type 11 (Homo sapiens, UniProt Q06124); experiment: Inhibition of recombinant human SHP2 expressed in Escherichia coli using […] as substrate preincubated with substrate for 5 mins followed by enzyme addition
T4 sequence (Q06124 whole entry): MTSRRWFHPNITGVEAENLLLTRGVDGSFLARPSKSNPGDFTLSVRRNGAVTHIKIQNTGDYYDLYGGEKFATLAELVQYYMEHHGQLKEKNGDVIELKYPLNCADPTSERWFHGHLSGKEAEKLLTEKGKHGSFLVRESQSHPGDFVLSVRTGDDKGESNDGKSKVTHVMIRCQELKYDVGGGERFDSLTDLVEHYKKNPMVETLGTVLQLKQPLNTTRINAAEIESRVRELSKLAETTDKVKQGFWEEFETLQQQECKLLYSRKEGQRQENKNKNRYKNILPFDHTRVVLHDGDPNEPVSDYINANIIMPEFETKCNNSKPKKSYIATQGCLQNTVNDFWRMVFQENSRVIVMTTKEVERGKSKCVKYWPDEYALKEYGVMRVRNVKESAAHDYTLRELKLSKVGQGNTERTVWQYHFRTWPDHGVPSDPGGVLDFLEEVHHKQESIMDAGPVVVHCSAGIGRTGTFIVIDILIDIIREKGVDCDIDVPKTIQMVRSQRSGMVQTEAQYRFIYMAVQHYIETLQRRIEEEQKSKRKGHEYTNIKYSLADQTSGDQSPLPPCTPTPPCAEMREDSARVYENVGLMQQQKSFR

[9] = target: T5, Tyrosine-protein phosphatase non-receptor type 4 (Homo sapiens, UniProt P29074); experiment: Inhibition of recombinant human N-terminal GST-tagged MEG1 catalytic domain (637 to 926 residues) expressed in Escherichia coli using […] as substrate preincubated with substrate for 5 mins followed by enzyme addition
T5 sequence (P29074 whole entry): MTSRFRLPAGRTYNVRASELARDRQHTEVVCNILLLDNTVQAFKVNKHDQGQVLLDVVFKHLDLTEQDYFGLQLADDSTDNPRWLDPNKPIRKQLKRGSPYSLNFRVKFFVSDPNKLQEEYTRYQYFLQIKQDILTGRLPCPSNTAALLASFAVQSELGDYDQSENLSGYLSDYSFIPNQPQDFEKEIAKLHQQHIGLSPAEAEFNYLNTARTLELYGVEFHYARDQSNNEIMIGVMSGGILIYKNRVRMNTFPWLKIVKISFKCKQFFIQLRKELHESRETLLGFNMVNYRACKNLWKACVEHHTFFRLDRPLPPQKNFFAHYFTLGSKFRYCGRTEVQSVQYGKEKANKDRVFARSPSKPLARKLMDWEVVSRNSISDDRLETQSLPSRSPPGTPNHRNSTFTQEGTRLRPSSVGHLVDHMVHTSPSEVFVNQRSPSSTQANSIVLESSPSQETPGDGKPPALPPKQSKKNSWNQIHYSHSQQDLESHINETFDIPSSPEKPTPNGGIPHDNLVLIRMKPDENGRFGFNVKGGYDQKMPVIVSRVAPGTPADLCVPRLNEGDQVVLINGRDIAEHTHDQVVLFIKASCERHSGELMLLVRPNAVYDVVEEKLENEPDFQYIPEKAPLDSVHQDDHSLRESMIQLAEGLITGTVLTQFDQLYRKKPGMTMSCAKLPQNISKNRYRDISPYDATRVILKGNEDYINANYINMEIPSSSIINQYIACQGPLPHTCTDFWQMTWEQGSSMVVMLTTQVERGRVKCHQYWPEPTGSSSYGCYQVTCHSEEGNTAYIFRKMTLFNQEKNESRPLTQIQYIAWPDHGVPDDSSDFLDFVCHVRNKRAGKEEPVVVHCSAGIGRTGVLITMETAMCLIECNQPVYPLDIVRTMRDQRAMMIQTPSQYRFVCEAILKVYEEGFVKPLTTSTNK

[10] = target: T3, Tyrosine-protein phosphatase non-receptor type 1; experiment: Competitive inhibition of recombinant human PTP1B expressed in Escherichia coli using varying levels of […] as substrate by Lineweaver-burk plot analysis

| IC50 [1] | IC50 [2] | Ratio IC50 (Homo sapiens [3]) | IC50 [4] | Ratio IC50 (Homo sapiens [5]) | Ratio IC50 (Homo sapiens [6]) | Ratio IC50 (Homo sapiens [7]) | IC50 [8] | IC50 [9] | Ki [10] | SMILES |
| --- | --- | --- | --- | --- | --- | --- | --- | --- | --- | --- |
| 6800 nM | 5900 nM | 10 to 18 | 380 nM | 10 to 18 | 10 to 18 | 15 | 3700 nM | 5400 nM | 140 nM | O=P(O)(Cc1cc2c(O)c(c1)Sc1cc(CP(=O)(O)c3ccccc3)cc(c1O)Sc1cc(CP(=O)(O)c3ccccc3)cc(c1O)Sc1cc(CP(=O)(O)c3ccccc3)cc(c1O)S2)c1ccccc1 |
| 20000 nM | 2400 nM |  | 2800 nM |  |  |  | 4600 nM | 30000 nM |  | O=P(O)(Cc1cc2c(O)c(c1)Cc1cc(CP(=O)(O)c3ccccc3)cc(c1O)Cc1cc(CP(=O)(O)c3ccccc3)cc(c1O)Cc1cc(CP(=O)(O)c3ccccc3)cc(c1O)C2)c1ccccc1 |
|  |  |  |  |  |  | 15 |  |  |  | CCOP(=O)(O)Cc1cc2c(O)c(c1)Sc1cc(CP(=O)(O)OCC)cc(c1O)Sc1cc(CP(=O)(O)OCC)cc(c1O)Sc1cc(CP(=O)(O)OCC)cc(c1O)S2 |
| 280 nM | 410 nM |  | 79 nM |  |  |  | 500 nM | 180 nM | 32 nM | O=P(O)(Cc1cc2c(O)c(c1)S(=O)(=O)c1cc(CP(=O)(O)c3ccccc3)cc(c1O)S(=O)(=O)c1cc(CP(=O)(O)c3ccccc3)cc(c1O)S(=O)(=O)c1cc(CP(=O)(O)c3ccccc3)cc(c1O)S2(=O)=O)c1ccccc1 |

Source: ChEMBL document CHEMBL4422658, “Calixarene-based phosphinic acids as inhibitors of protein tyrosine phosphatases” (Bioorg Med Chem Lett, 2019)
